Measured values reported in patent US20140080758A1, “TREATMENT OF KIDNEY DISORDERS WITH VIP FRAGMENTS” (Vectus […] Limited, priority 2008, published 2014).

System: spontaneously hypertensive rats (SHR) on 2.2% salt diet
Test: Renal interstitial fibrosis after 4-week peptide infusion in SHR on 2.2% salt diet
Format: in vivo, rat
Conditions: infusion 5 pmol/kg/min intravenously by osmotic minipump for 4 weeks, versus vehicle control, fibrosis as percent surface area
Description: For kidney fibrosis experiments, two types of rats were used, spontaneously hypertensive rats (SHR) and normotensive control Wistar-Kyoto rats (WKY) (animals were obtained from Australian Animal Resources, Perth, Western Australia, Australia)
i) Male spontaneously hypertensive (SHR) rats on 2.2% salt diet ii) Male Wistar Kyoto (WKY) rats on 4.4% salt diets
Commencing at 12 weeks of age, the rats were acclimatized to tail cuff blood pressure measurements and handling for 2 weeks. They then underwent operative insertion of an osmotic minipump (Alzet—Manufacturer: Durect Corporation, Cupertino, Calif., USA; Supplier: Bioscientific Gymea, NSW, Australia) which was designed to deliver vehicle alone (Hartman's solution, Baxter Health Care Corporation, USA)—(Controls) or VIP, VIP fragment or analogue at a dose of 4 pmol/kg/min or 5 pmol/kg/min intravenously.
The infusion was continued for 4 weeks, during which the rats were weighed and their blood pressures measured twice weekly. At the end of the 4 week infusion period, the rats were anaesthetized and their kidneys harvested. […]
For quantitation of interstitial fibrosis, twenty microscopic fields from each kidney were digitized and the amount of fibrosis in each determined as percent surface area using Image-Pro Plus V5.0 software (Cybernetics). The mean value for each rat and subsequently for each infusion group was then determined.

For “His-Ser-Asp-Ala-Val-Phe-Thr-Asp-Asn-Tyr-Thr-Arg-Leu-Arg-Lys-Gln-Met-Ala-Val-Lys-Lys-Tyr-Leu-Asn-Ser-Ile-Leu-Asn (HSDAVFTDNYTRLRKQMAVKKYLNSILN; listed as Homo sapiens) [VIP]”, the renal interstitial fibrosis was “reductions in renal interstitial fibrosis”.
